Assay results: US20220370416A1, “COMPOUNDS AND METHODS FOR TARGETED DEGRADATION OF KRAS” (Arvinas Operations, Inc., priority 2020, published 2022)

Key:
HiBit-KRAS^G12C [1] = target: T1, HiBit-KRAS^G12C (Homo sapiens, UniProt P01116, G12C); assay: HiBit degradation assay in SW1573 HiBit-KRas^G12C cells; assay type: cell-based; design: expressed in transfected cells; host or cells: SW1573 (clone E6), modified pcDNA3.1 vector, TK promoter; details: 24 hours; for Dmax: SW1573, SW1573 HiBit-KRas^G12C
T1 sequence (P01116 1-186 isoform P01116-2 G12C limits assumed): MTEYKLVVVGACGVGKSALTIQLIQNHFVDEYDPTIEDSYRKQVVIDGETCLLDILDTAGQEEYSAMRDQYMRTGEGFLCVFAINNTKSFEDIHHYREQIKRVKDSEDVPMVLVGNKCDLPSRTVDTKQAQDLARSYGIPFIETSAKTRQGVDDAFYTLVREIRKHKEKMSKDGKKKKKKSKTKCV
Method in brief: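 SW1573 cells stably expressing N-terminally HiBit-tagged KRAS G12C, under the TK promoter, were treated 24 h at 37 °C with 10 μM to 20 nM compound in 0.1% or 0.5% DMSO. Residual HiBit luminescence normalised to DMSO and fitted with a 4-parameter model for DC50 and Dmax. Points with ≥50% viability loss (alamar blue) excluded.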

HiBit-KRAS^G12C [2] = target: T1, HiBit-KRAS^G12C; assay: HiBit degradation assay in MiaPaCa-2 HiBit-KRas^G12C cells; assay type: cell-based; details: 24 hours; for Dmax: MIA PaCa-2, MiaPaCa-2 HiBit-KRas^G12C cells
Method in brief: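 MiaPaCa-2 cells with CRISPR N-terminal HiBit knock-in on one endogenous KRAS^G12C allele, treated 24 hours at 37° C with compound titrated 10 μM to 20 nM (0.1% or 0.5% DMSO). Lytic HiBit luminescence normalized to DMSO, 4-parameter fit giving DC50 and Dmax; points cytotoxic to […] cells by alamar blue excluded.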

[3] = read-out: KRas^G12C-HiBiT (SW1573; 0.5% DMSO) IC50***, SW1573 HiBit-KRas^G12C, 0.5% DMSO
[4] = read-out: KRas^G12C-HiBiT (MiaPaCa; 0.5% DMSO) IC50, MiaPaCa-2 HiBit-KRas^G12C cells, 0.5% DMSO
[5] = 0.5% DMSO, read-out: KRas^G12C-HiBiT (SW1573; 0.5% DMSO) Dmax**
[6] = 0.5% DMSO, maximum degradation, read-out: KRas^G12C-HiBiT (MiaPaCa; 0.5% DMSO) DMax
[7] = SW1573 HiBit-KRas^G12C, 0.1% DMSO, read-out: KRas^G12C-HIBit (SW1573; 0.1% DMSO) DC50*

Question: Which results are given for C=C(F)C(=O)N1CCN(c2nc(OCCN3CCC(COc4cc([C@H](C(=O)N5C[C@H](O)C[C@H]5C(=O)N[C@@H](C)c5ccc(-c6ccnn6C)cc5)C(C)C)on4)CC3)nc3c(F)c(-c4cc(O)cc5ccccc45)c(Cl)cc23)C[C@@H]1CC#N [Compound 156, (2S,4R)-1-[(2R)-2-[3-({1-[2-({6-chloro-4-[(3S)-3-(cyanomethyl)-4-(2-fluoroprop-2-enoyl)piperazin-1-yl]-8-fluoro-7-(3-hydroxynaphthalen-1-yl)quinazolin-2-yl}oxy)ethyl]piperidin-4-yl}methoxy)-1,2-oxazol-5-yl]-3-methylbutanoyl]-4-hydroxy-N-[(1S)-1-[4-(1-methyl-1H-pyrazol-5-yl)phenyl]ethyl]pyrrolidine-2-carboxamide]?
Answer: DC50 (HiBit-KRAS^G12C [1]; [3]): < 100 nM; DC50 (HiBit-KRAS^G12C [2]; [4]): 100 to 1000 nM

Question: How did the “KRas^G12C-HiBiT (SW1573; 0.5% DMSO) Dmax**” value (HiBit-KRAS^G12C [1]; SW1573 HiBit-KRas^G12C, 0.5% DMSO) turn out when C=CC(=O)N1CCN(c2nc(OCCN3CCC4(CC3)CN(c3cc([C@H](C(=O)N5C[C@H](O)C[C@H]5C(=O)N[C@@H](C)c5ccc(-c6scnc6C)cc5)C(C)C)on3)C4)nc3c(F)c(-c4cc(O)cc5ccccc45)c(Cl)cc23)C[C@@H]1CC#N [Compound 139, (2S,4R)-1-[(2R)-2-(3-{7-[2-({6-chloro-4-[(3S)-3-(cyanomethyl)-4-(prop-2-enoyl)piperazin-1-yl]-8-fluoro-7-(3-hydroxynaphthalen-1-yl)quinazolin-2-yl}oxy)ethyl]-2,7-diazaspiro[3.5]nonan-2-yl}-1,2-oxazol-5-yl)-3-methylbutanoyl]-4-hydroxy-N-[(1S)-1-[4-(4-methyl-1,3-thiazol-5-yl)phenyl]ethyl]pyrrolidine-2-carboxamide] was run?
Answer: A (A ≥ 70)

Question: What about the DC50 (HiBit-KRAS^G12C [1]; [3]) of the same compound?
Answer: < 100 nM

Question: What about the “KRas^G12C-HiBiT (MiaPaCa; 0.5% DMSO) DMax” value (HiBit-KRAS^G12C [2]; MiaPaCa-2 HiBit-KRas^G12C cells, 0.5% DMSO, maximum degradation) of the same compound?
Answer: A (A ≥ 70)

Question: What about the DC50 (HiBit-KRAS^G12C [2]; [4]) of the same compound?
Answer: 100 to 1000 nM

Question: What does the source list for C=CC(=O)N1CCN(c2nc(O[C@H]3CCC[C@@H]3N3CCC(COCC(=O)N[C@H](C(=O)N4C[C@H](O)C[C@H]4C(=O)N[C@@H](C)c4ccc(-c5scnc5C)cc4)C(C)(C)C)CC3)nc3c(F)c(-c4cc(O)cc5ccccc45)c(Cl)cc23)C[C@@H]1CC#N [Compound 127, (2S,4R)-1-[(2S)-2-[2-({1-[(1S,2S)-2-({6-chloro-4-[(3S)-3-(cyanomethyl)-4-(prop-2-enoyl)piperazin-1-yl]-8-fluoro-7-(3-hydroxynaphthalen-1-yl)quinazolin-2-yl}oxy)cyclopentyl]piperidin-4-yl}methoxy)acetamido]-3,3-dimethylbutanoyl]-4-hydroxy-N-[(1S)-1-[4-(4-methyl-1,3-thiazol-5-yl)phenyl]ethyl]pyrrolidine-2-carboxamide]?
Answer: Dmax (HiBit-KRAS^G12C [1]; [5]): 35 to 70%; DC50 (HiBit-KRAS^G12C [1]; [3]): 100 to 1000 nM; Dmax (HiBit-KRAS^G12C [2]; [6]): 35 to 70%; DC50 (HiBit-KRAS^G12C [2]; [4]): 100 to 1000 nM

Question: Which results are given for C=CC(=O)N1CCN(c2nc(O[C@H](C)CN3CCC(OCC(=O)N[C@H](C(=O)N4C[C@H](O)C[C@H]4C(=O)N[C@@H](C)c4ccc(-c5scnc5C)cc4)C(C)(C)C)CC3)nc3c(F)c(-c4cc(O)cc5ccccc45)c(Cl)cc23)CC1 [Compound 43, (2S,4R)-1-[(2S)-2-[2-({1-[(2R)-2-{[6-chloro-8-fluoro-7-(3-hydroxynaphthalen-1-yl)-4-[4-(prop-2-enoyl)piperazin-1-yl]quinazolin-2-yl]oxy}propyl]piperidin-4-yl}oxy)acetamido]-3,3-dimethylbutanoyl]-4-hydroxy-N-[(1S)-1-[4-(4-methyl-1,3-thiazol-5-yl)phenyl]ethyl]pyrrolidine-2-carboxamide]?
Answer: Dmax (HiBit-KRAS^G12C [1]; 0.1% DMSO, read-out: KRas^G12C-HiBit (SW1573; 0.1% DMSO) Dmax**): 35 to 70%; Dmax (HiBit-KRAS^G12C [1]; [5]): > 70%; DC50 (HiBit-KRAS^G12C [1]; [7]): 100 to 1000 nM; Dmax (HiBit-KRAS^G12C [2]; 0.1% DMSO, maximum degradation, read-out: KRas^G12C-HiBiT (MiaPaCa; 0.1% DMSO) DMax): 35 to 70%; Dmax (HiBit-KRAS^G12C [2]; [6]): 35 to 70%

Question: C=CC(=O)N1CCN(c2nc(O[C@H](C)CN3CCC(OCCN4CCN(CC(=O)N[C@H](C(=O)N5C[C@H](O)C[C@H]5C(=O)N[C@@H](C)c5ccc(-c6scnc6C)cc5)C(C)(C)C)CC4)CC3)nc3c(F)c(-c4cc(O)cc5ccccc45)c(Cl)cc23)CC1 [Compound 54, (2S,4R)-1-[(2S)-2-(2-{4-[2-({1-[(2R)-2-{[6-chloro-8-fluoro-7-(3-hydroxynaphthalen-1-yl)-4-[4-(prop-2-enoyl)piperazin-1-yl]quinazolin-2-yl]oxy}propyl]piperidin-4-yl}oxy)ethyl]piperazin-1-yl}acetamido)-3,3-dimethylbutanoyl]-4-hydroxy-N-[(1S)-1-[4-(4-methyl-1,3-thiazol-5-yl)phenyl]ethyl]pyrrolidine-2-carboxamide] was tested. Which DC50 (HiBit-KRAS^G12C [1]; [7]) did it give?
Answer: < 100 nM

Question: And the DC50 (HiBit-KRAS^G12C [2]; read-out: KRas^G12C-HiBiT (MiaPaCa; 0.1% DMSO) IC50, MiaPaCa-2 HiBit-KRas^G12C cells, 0.1% DMSO)?
Answer: > 1000 nM

Question: What does the source list for C=CC(=O)N1CCN(c2nc(OCCN3CCC(COc4cc([C@H](C(=O)N5C[C@@H](O)C[C@H]5C(=O)N[C@@H](C)c5ccc(-c6scnc6C)cc5)C(C)C)on4)CC3)nc3c(F)c(-c4cc(O)cc5ccccc45)c(Cl)cc23)C[C@@H]1CC#N (atropisomer, axis not shown) [Compound 106, (2S,4S)-1-[(2R)-2-[3-({1-[2-({6-chloro-4-[(3S)-3-(cyanomethyl)-4-(prop-2-enoyl)piperazin-1-yl]-8-fluoro-7-(3-hydroxynaphthalen-1-yl)quinazolin-2-yl}oxy)ethyl]piperidin-4-yl}methoxy)-1,2-oxazol-5-yl]-3-methylbutanoyl]-4-hydroxy-N-[(1S)-1-[4-(4-methyl-1,3-thiazol-5-yl)phenyl]ethyl]pyrrolidine-2-carboxamide]?
Answer: DC50 (HiBit-KRAS^G12C [1]; [3]): > 1000 nM; Dmax (HiBit-KRAS^G12C [2]; [6]): < 35%; DC50 (HiBit-KRAS^G12C [2]; [4]): < 100 nM

Question: For C=CC(=O)N1CCN(c2nc(O[C@H](C)CN3CCC(COCC(=O)N[C@H](C(=O)N4C[C@H](O)C[C@H]4C(=O)N[C@@H](C)c4ccc(-c5scnc5C)cc4)C(C)(C)C)CC3)nc3c(F)c(-c4cc(O)cc5ccccc45)c(Cl)cc23)C[C@@H]1CC#N [Compound 152, (2S,4R)-1-[(2S)-2-[2-({1-[(2R)-2-({6-chloro-4-[(3S)-3-(cyanomethyl)-4-(prop-2-enoyl)piperazin-1-yl]-8-fluoro-7-(3-hydroxynaphthalen-1-yl)quinazolin-2-yl}oxy)propyl]piperidin-4-yl}methoxy)acetamido]-3,3-dimethylbutanoyl]-4-hydroxy-N-[(1S)-1-[4-(4-methyl-1,3-thiazol-5-yl)phenyl]ethyl]pyrrolidine-2-carboxamide], which Dmax (HiBit-KRAS^G12C [1]; [5]) is on record?
Answer: > 70%

Question: What about the DC50 (HiBit-KRAS^G12C [1]; [3]) of the same compound?
Answer: 100 to 1000 nM

Question: What about the Dmax (HiBit-KRAS^G12C [2]; [6]) of the same compound?
Answer: 35 to 70%

Question: And the DC50 (HiBit-KRAS^G12C [2]; [4])?
Answer: 100 to 1000 nM
